Patent publication US20260152503A1, “SPIROBICYCLIC COMPOUNDS” (ACERAND THERAPEUTICS (HONG KONG) LIMITED, priority 2022, published 2026)

Legend:
FGFR2 = biological target: T1, FGFR2 (Homo sapiens, UniProt P21802, K310R/N549K); experiment: pERK potency assay (In Cell ELISA), AN3CA cells; format: cell-based; details: for IC50: pERK, AN3CA (FGFR2/k310R, N549K) cells, 3 hours; for FGFR1 IC50/FGFR2 IC50 / FGFR3 IC50/FGFR2 IC50: selectivity ratio, pERK potency; for FGFR1 IC50/FGFR2 IC50: FGFR2 relative to FGFR1; for FGFR3 IC50/FGFR2 IC50: FGFR2 relative to FGFR3
T1 construct: in FGFR aberrations of AN3CA (FGFR2/k310R, N549K); host or cells: AN3CA
T1 sequence (P21802 22-821 K310R/N549K): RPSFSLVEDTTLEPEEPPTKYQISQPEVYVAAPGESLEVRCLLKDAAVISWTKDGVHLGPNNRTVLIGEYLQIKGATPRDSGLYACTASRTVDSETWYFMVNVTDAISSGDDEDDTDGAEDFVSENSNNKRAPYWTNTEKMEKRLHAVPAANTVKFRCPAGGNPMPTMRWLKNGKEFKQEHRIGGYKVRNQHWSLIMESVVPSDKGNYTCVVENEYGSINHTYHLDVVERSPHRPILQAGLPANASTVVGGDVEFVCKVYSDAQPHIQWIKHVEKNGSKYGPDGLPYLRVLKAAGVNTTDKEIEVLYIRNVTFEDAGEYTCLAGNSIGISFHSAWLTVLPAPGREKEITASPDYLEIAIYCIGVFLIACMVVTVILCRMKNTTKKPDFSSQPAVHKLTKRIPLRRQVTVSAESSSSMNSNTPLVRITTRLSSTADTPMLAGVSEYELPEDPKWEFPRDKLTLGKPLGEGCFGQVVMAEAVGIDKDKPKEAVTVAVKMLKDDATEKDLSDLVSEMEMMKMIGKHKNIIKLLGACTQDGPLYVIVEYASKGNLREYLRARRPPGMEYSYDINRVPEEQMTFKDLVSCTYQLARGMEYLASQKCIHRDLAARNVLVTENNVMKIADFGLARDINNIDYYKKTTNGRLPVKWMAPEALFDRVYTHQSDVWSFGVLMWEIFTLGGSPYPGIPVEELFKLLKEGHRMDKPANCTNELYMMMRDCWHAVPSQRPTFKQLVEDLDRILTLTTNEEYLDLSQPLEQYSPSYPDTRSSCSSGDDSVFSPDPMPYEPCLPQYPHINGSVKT
How it was run: (§1)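 IC50 values come from a 4-parameter sigmoidal fit of in-cell ELISA chemiluminescent pERK (Thr202/Tyr204) signal. Treatment lasted 3 h at 37 °C, final 0.000038 to 10 μM in 4-fold steps, using AN3CA (mutant FGFR2), DMS114 (amplified FGFR1) and RT112 (FGFR3 overexpression/fusion) cells.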

FGFR1 = biological target: T2, FGFR1 (Homo sapiens, UniProt P11362); experiment: pERK potency assay (In Cell ELISA), DMS114 cells; format: cell-based; details: DMS114 (FGFR1 amplification) cells, 3 hours
T2 construct: DMS114 (FGFR1 amplification); host or cells: DMS114
T2 sequence (P11362 22-822): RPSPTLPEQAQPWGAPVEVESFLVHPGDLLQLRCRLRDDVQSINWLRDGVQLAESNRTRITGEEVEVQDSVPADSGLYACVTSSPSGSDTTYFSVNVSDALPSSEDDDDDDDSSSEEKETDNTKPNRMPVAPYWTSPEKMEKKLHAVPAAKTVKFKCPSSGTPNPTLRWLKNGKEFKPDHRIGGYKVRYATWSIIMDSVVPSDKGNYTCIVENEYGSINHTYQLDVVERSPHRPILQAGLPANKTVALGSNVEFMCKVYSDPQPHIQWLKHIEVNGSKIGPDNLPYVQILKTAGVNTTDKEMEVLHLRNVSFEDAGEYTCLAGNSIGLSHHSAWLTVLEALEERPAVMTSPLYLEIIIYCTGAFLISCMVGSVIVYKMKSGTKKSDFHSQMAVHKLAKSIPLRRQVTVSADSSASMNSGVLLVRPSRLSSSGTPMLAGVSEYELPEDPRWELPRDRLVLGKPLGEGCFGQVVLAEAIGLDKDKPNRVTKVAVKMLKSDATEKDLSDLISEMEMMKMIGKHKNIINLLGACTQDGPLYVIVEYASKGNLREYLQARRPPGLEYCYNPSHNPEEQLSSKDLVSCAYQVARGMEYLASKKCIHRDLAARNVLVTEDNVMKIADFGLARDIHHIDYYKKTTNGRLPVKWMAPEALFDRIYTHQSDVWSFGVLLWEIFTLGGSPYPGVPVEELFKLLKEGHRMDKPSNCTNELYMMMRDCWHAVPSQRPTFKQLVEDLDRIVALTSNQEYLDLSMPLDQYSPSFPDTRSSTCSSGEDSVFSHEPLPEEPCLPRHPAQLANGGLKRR
How it was run: as §1

FGFR3 = biological target: T3, FGFR3 (Homo sapiens, UniProt P22607); experiment: pERK potency assay (In Cell ELISA), RT112 cells; format: cell-based; details: RT112 (FGFR3 overexpression/FGFR3-TACC3 fusion) cells, 3 hours
T3 construct: RT112 (FGFR3 overexpression/FGFR3-TACC3 fusion); host or cells: RT112; the other entry of the earlier key: TACC3 (Q9Y6A5, Transforming acidic coiled-coil-containing protein 3)
How it was run: as §1

AN3CA = experiment: 2D cell proliferation assay, AN3CA; format: cell-based; details: Homo sapiens, AN3-CA, 96 hours, CTG, read-out: Cell Line, IC50 AN3CA
Experimental: (§2) Low IC50 values are indicative of the high potency of the FGFR inhibitor compounds in this assay selling. […] Cell proliferation assays are performed in two-dimensional (2D)) anchorage-dependent conditions in 96 well plates (Corning® Black/Clear flat Bottom, Cat #3603) with the following cell lines: • Ba/F3 FGFR2-BICC1 (human […]): Mouse Ba/F3 cell line stably expressed exogenous human FGFR2-BICC1 fusion gene bearing V546F mutation in FGFR2 Ba/F3; • FGFR2-BICC1 (human FGFR2/[…]): Mouse Ba/F3 cell line stably expressed exogenous human FGFR2-BICC1 fusion gene bearing N549K mutation in FGFR2; • Snu-16: human gastric cancer cell with FGFR2 amplification; • KATO III: human gastric cancer cell with FGFR2 amplification; • AN3CA: Human endometrial cancer with FGFR2 mutation (k310R, N549K); • MFM-223: Human breast cancer with FGFR1/2 amplification; • MFE-296: Human endometrial cancer with FGFR2 mutation (N549K); • MFE-280: Human endometrial cancer with FGFR2 mutation ([…]); • NCI-H1581: human non-small cell lung cancer with FGFR1 amplification; • KG-1a: Acute myelogenous leukemia with FGFR1OP2-FGFR1 translocation; • DMS114: human small cell carcinoma of the lung with FGFR1 amplification; • RT112: human bladder cancer with FGFR3 overexpression/FGFR3-TACC3 fusion; • SW780: human bladder cancer with FGFR3 overexpression/FGFR3-BALAP2L1 fusion; • Hep3B: Liver cancer with FGF19 amplification (FGFR4 ligand); • AGS: Human gastric adenocarcinoma with Kras G12D mutation and FGFR wild type; • PC-9: human non-small cell lung cancer (NSCLC) with wild-type FGFR and an EGFR del19 mutation; or • H1975: human non-small cell lung cancer (NSCLC) with wild-type FGFR and EGFR L858R/T790M mutation.
(§3) Cell lines are purchased from the American Type Culture Collection (ATCC) or Sigma. All cell lines are maintained in RPMI-1640 or DMEM supplemented with 10% heat-inactivated fetal bovine serum.
(§4) Cells growing in the log phase are detached with Gibco™ TrypLE™ Express Enzyme and plated in 96 well plate at 3000 to 5000 cells/well in 100 μl of media. After overnight incubation at 37° C., 5% CO2 incubator, cells are treated with compounds (50 uL/well) at the final concentrations spanning from 0.000038 uM to 10 μM (4-fold serial dilution for total of 10 points). Cells are incubated at 37° C., 5% CO2, and 95% humidity incubator for 96 hours. At the end of incubation 2D CTG reagent from Promega was added to each well according to vendors recommendation and mixed for 10 min in dark. The luminescence signals are determined with a Biotek™ plate reader. Data is fitted using a sigmoidal curve analysis program (GraphPad Prism®) with variable hill slope and IC50 is determined.

Ba/F3 FGFR2-N549K = biological target: T4, Ba/F3 FGFR2-N549K (Homo sapiens, UniProt P21802, N549K, cells depend on it); experiment: 2D cell proliferation assay, Ba/F3 FGFR2-N549K; format: cell-based, mouse; details: 96 hours, CTG, read-out: Cell Line, IC50 Ba/F3 FGFR2-N549K
T4 construct: fused on or other part: Q9H694 (Protein bicaudal C homolog 1)
T4 sequence (P21802 whole entry N549K, the tested form may be a part): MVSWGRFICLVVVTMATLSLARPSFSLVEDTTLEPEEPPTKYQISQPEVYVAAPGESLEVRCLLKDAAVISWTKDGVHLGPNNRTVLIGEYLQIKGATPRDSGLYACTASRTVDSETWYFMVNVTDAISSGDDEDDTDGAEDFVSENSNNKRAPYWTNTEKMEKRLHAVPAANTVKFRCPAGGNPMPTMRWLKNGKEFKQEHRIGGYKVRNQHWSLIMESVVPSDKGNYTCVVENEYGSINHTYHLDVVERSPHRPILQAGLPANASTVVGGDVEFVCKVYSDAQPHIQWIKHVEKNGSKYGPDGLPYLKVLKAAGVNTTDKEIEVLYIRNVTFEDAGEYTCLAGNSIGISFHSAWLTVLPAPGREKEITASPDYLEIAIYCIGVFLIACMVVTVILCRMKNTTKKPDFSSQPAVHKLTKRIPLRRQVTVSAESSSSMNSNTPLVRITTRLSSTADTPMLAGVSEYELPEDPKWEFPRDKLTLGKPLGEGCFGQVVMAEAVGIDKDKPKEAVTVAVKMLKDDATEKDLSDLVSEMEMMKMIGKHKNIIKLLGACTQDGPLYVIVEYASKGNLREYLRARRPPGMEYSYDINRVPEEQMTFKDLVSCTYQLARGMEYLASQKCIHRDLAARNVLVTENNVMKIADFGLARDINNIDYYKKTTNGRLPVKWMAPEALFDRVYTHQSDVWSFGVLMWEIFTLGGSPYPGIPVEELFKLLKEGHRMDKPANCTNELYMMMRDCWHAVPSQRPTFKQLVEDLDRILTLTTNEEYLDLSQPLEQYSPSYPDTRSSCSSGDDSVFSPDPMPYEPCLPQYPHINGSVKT
Experimental: as §2, §3, §4

Ba/F3 FGFR2-V564F = biological target: T5, Ba/F3 FGFR2-V564F (Homo sapiens, UniProt P21802, V564F, cells depend on it); experiment: 2D cell proliferation assay, Ba/F3 FGFR2-V564F; format: cell-based, mouse; details: 96 hours, CTG, read-out: Cell Line, IC50 Ba/F3 FGFR2-V564F
T5 construct: fused on or other part: Q9H694 (Protein bicaudal C homolog 1)
T5 sequence (P21802 whole entry V564F, the tested form may be a part): as the sequence (P21802 whole entry N549K, the tested form may be a part) above, with K549N, V564F counted along it
Experimental: as §2, §3, §4

KATO III = experiment: 2D cell proliferation assay, KATO III; format: cell-based; details: Homo sapiens, 96 hours, CTG, read-out: Cell Line, IC50 KATO III
Experimental: as §2, §3, §4

SNU-16 = experiment: 2D cell proliferation assay, SNU-16; format: cell-based; details: Homo sapiens, 96 hours, CTG, read-out: Cell Line, IC50 SNU-16
Experimental: as §2, §3, §4

Compound	IC50 (FGFR2) [nM]	FGFR1 IC50/FGFR2 IC50 (FGFR2)	FGFR3 IC50/FGFR2 IC50 (FGFR2)	IC50 (FGFR1) [nM]	IC50 (FGFR3) [nM]	IC50 (AN3CA) [nM]	GI50 (Ba/F3 FGFR2-N549K) [nM]	GI50 (Ba/F3 FGFR2-V564F) [nM]	IC50 (KATO III) [nM]	IC50 (SNU-16) [nM]
C=CC(=O)N1CCC2(CC=C(c3c(-c4cnc(OC5CC5)c(F)c4)c4c(N)ncnc4n3C)CC2)CC1 [Example 23, 1-(9-(4-amino-5-(6-cyclopropoxy-5-fluoropyridin-3-yl)-7-methyl-7H-pyrrolo[2,3-d]pyrimidin-6-yl)-3-azaspiro[5.5]undec-8-en-3-yl)prop-2-en-1-one]	1 to 10	G (a selectivity ratio greater than 150 but less than or equal to 500)	H (a selectivity ratio greater than 500 but less than or equal to 1000)	> 100	> 100	10 to 30	1 to 10	10 to 30	1 to 10	1 to 10
C=CC(=O)N1CCC2(CC=C(c3c(-c4ccc(OC5CCCC5)nc4)c4c(N)ncnc4n3C)CC2)CC1 [Example 24, 1-(9-(4-amino-5-(6-(cyclopentyloxy)pyridin-3-yl)-7-methyl-7H-pyrrolo[2,3-d]pyrimidin-6-yl)-3-azaspiro[5.5]undec-8-en-3-yl)prop-2-en-1-one]	1 to 10	F (a selectivity ratio greater than 50 but less than or equal to 150)	F (a selectivity ratio greater than 50 but less than or equal to 150)	> 100	> 100	10 to 30	1 to 10	30 to 100	10 to 30	10 to 30
C=CC(=O)N1CCC2(CC=C(c3c(-c4ccc(OC5CCC5)nc4)c4c(N)ncnc4n3C)CC2)CC1 [Example 26, 1-(9-(4-amino-5-(6-cyclobutoxypyridin-3-yl)-7-methyl-7H-pyrrolo[2,3-d]pyrimidin-6-yl)-3-azaspiro[5.5]undec-8-en-3-yl)prop-2-en-1-one]	1 to 10	F (a selectivity ratio greater than 50 but less than or equal to 150)	G (a selectivity ratio greater than 150 but less than or equal to 500)	> 100	> 100	10 to 30	1 to 10	1 to 10	1 to 10	1 to 10
C=CC(=O)N1CCC2(CC=C(c3c(-c4cnc(OC)c(F)c4)c4c(N)ncnc4n3C)CC2)CC1 [Example 28, 1-(9-(4-amino-5-(5-fluoro-6-methoxypyridin-3-yl)-7-methyl-7H-pyrrolo[2,3-d]pyrimidin-6-yl)-3-azaspiro[5.5]undec-8-en-3-yl)prop-2-en-1-one]	1 to 10	F (a selectivity ratio greater than 50 but less than or equal to 150)	G (a selectivity ratio greater than 150 but less than or equal to 500)	> 100	> 100	10 to 30	1 to 10	10 to 30	1 to 10	1 to 10
C=CC(=O)N1CCC2(CC=C(c3c(-c4ncccn4)c4c(N)ncnc4n3C)CC2)CC1 [Example 33, 1-(9-(4-amino-7-methyl-5-(pyrimidin-2-yl)-7H-pyrrolo[2,3-d]pyrimidin-6-yl)-3-azaspiro[5.5]undec-8-en-3-yl)prop-2-en-1-one]	1 to 10	G (a selectivity ratio greater than 150 but less than or equal to 500)	I (a selectivity ratio greater than 1000 but less than or equal to 2000)	> 100	> 100	10 to 30	1 to 10	≤ 1	1 to 10	1 to 10
C=CC(=O)N1CCC2(CC=C(c3c(-c4ccc(OC)nc4)c4c(N)ncnc4n3C)CC2)CC1C (stereo not drawn) [Example 39, 1-(9-(4-amino-5-(6-methoxypyridin-3-yl)-7-methyl-7H-pyrrolo[2,3-d]pyrimidin-6-yl)-2-methyl-3-azaspiro[5.5]undec-8-en-3-yl)prop-2-en-1-one]	1 to 10	G (a selectivity ratio greater than 150 but less than or equal to 500)	I (a selectivity ratio greater than 1000 but less than or equal to 2000)	> 100	> 100	10 to 30	1 to 10	10 to 30	10 to 30	10 to 30
C=CC(=O)N1CCC2(CC=C(c3c(-c4ncc(C(F)(F)F)cn4)c4c(N)ncnc4n3C)CC2)CC1 [Example 42, 1-(9-(4-amino-7-methyl-5-(5-(trifluoromethyl)pyrimidin-2-yl)-7H-pyrrolo[2,3-d]pyrimidin-6-yl)-3-azaspiro[5.5]undec-8-en-3-yl)prop-2-en-1-one]	≤ 1	J (a selectivity ratio greater than 2000)	J (a selectivity ratio greater than 2000)	> 100	> 100	10 to 30	1 to 10	1 to 10	10 to 30	10 to 30
C=CC(=O)N1CCC2(CC=C(c3c(-c4ncc(C#N)cn4)c4c(N)ncnc4n3C)CC2)CC1 [Example 51, 2-(6-(3-acryloyl-3-azaspiro[5.5]undec-8-en-9-yl)-4-amino-7-methyl-7H-pyrrolo[2,3-d]pyrimidin-5-yl)pyrimidine-5-carbonitrile]	≤ 1	J (a selectivity ratio greater than 2000)	J (a selectivity ratio greater than 2000)	> 100	> 100	30 to 100	1 to 10	1 to 10	10 to 30	10 to 30
C=CC(=O)N1CCC2(CC=C(c3c(-c4ncc(C(F)F)cn4)c4c(N)ncnc4n3C)CC2)CC1 [Example 56, 1-(9-(4-amino-5-(5-(difluoromethyl)pyrimidin-2-yl)-7-methyl-7H-pyrrolo[2,3-d]pyrimidin-6-yl)-3-azaspiro[5.5]undec-8-en-3-yl)prop-2-en-1-one]	≤ 1	G (a selectivity ratio greater than 150 but less than or equal to 500)	I (a selectivity ratio greater than 1000 but less than or equal to 2000)	> 100	> 100	≤ 1	1 to 10	≤ 1	1 to 10	1 to 10
